Holding throughout (details): Homo sapiens, read-out: ED50 (the source's name)
One experiment relates to HOS. The experiment can be described thus: Effective dose of compound against replication of HOS cell line was evaluated. The class given is functional.
The next experiment concerns A549. Briefly: Effective dose of compound against replication of A549 cell line was evaluated. The class given is functional.
The test system of experiment [1] is KB. The experiment can be described thus: Effective dose of compound against replication of KB/7d cell line was evaluated. The class given is functional.
A further experiment concerns SK-MEL-2. Briefly: Effective dose of compound against replication of SK-MEL-2 cell line was evaluated. The class given is functional.
A further experiment concerns 1A9. Briefly: Effective dose of compound against replication of 1A9 cell line was evaluated. The class given is functional.
The next experiment concerns PC-3. Briefly: Effective dose of compound against replication of PC-3 cell line was evaluated. The class given is functional.
A further experiment deals with MCF7. Briefly: Effective dose of compound against replication of MCF-7 cell line was evaluated. The class given is functional.
Experiment [2] has as its system KB. Briefly: Effective dose of compound against replication of KB-Vin cell line was evaluated. The class given is functional.
The test system of a further experiment is U-87 MG. The experiment can be described thus: Effective dose of compound against replication of U87MG cell line was evaluated. The class given is functional, U-87MG ATCC.
The next experiment deals with HCT-8. Briefly: Effective dose of compound against replication of HCT-8 cell line was evaluated. The class given is functional.
The test system of experiment [3] is KB. Briefly: Effective dose of compound against replication of KB cell line was evaluated. The class given is functional.

Each structure is given as a SMILES string.

Consider `COc1cc([C@@H]2c3cc4c(cc3[C@@H](Nc3ccc([N+](=O)[O-])cc3)[C@H]3COC(=O)[C@H]23)OCO4)cc(OC)c1O`, for which the EC50 is less than 1.6 µM in the experiment with HOS; less than 0.1 µM in the experiment on A549; 1.5 µM with KB [1]; 3 µM in the experiment on SK-MEL-2; less than 1.6 µM with 1A9; 8.9 µM in the experiment with PC-3. In addition, the EC50 with MCF7 amounted to 24.5 µM; in the experiment on KB [2] it was 4.1 µM; in the experiment with U-87 MG, 5.5 µM; with HCT-8 it was 1.6 µM; in the experiment with KB [3], 3.5 µM.

For the compound `COc1cc([C@@H]2c3cc4c(cc3[C@@H](Nc3ccc([N+](=O)[O-])cc3)[C@H]3COS(=O)OC[C@H]23)OCO4)cc(OC)c1O` (some centres not stated), the EC50 was 6 µM in the experiment on HOS; 8 µM in the experiment on A549; 2.9 µM in the experiment on KB [1]; 7.9 µM in the experiment on SK-MEL-2; 4.2 µM in the experiment with 1A9; greater than 20 µM with PC-3. Moreover, the EC50 amounted to 2.5 µM in the experiment with MCF7; 7.1 µM in the experiment on KB [2]; 8 µM in the experiment with U-87 MG; 10 µM with HCT-8; 5.1 µM in the experiment with KB [3].

The values are drawn from ChEMBL document CHEMBL1147640, “Antitumor agents. Part 232: Synthesis of cyclosulfite podophyllotoxin analogues as novel prototype antitumor agents” (2004).
